Read-outs that look alike come from different tables or passages of the source.
Key:
[1] = Lung tissue and plasma concentration ratios in mice; assay type: in vivo, CD-1 mouse; conditions: single oral dose 5 mg/kg, 2-in-1 with dasatinib, all time points tested
Description: CD-1 mouse (approximate weight 30 g, N=3) were dosed by oral gavage at 10 mL/kg. Blood samples were collected into tubes containing EDTA as the anticoagulant at 1, 2, 4, 10 h post-dosing for Compound X, and predose, 1, 2, 3, 8, 10 and 24 h post-dosing for Compound XI. The plasma samples were prepared by centrifugation. Lung samples were also collected at each of the above time points. The lung samples were homogenated in 4× distilled water (v/w). The plasma samples and the homogenated lung tissue samples were mixed with 3× volumes of acetonitrile containing 100 nM reserpine as the internal standard, and centrifuged at 4000 RPM for 15 min. The supernatants were injected for LC/MS analysis which were carried out on a AB Sciex 4000 Q Trap LC/MS/MS system coupled with Shimadzu Prominence UFLCXR 20 series (including a CBM-20A controller, two LC-20ADXR solvent delivery units, SIL-20AC HT autosampler, CTO-20A column oven, and a SPD-20A UV detector). The samples were separated on a Phenomenex Columbus column (C18, 4 μm, 50×2 mm) eluted with two solvent systems: 2 mM ammonium acetate in water containing 0.1% formic acid (A) and methanol (B) at a linear gradient starting at 25%. Electrospray ionization in positive mode was used to acquire LC/MS/MS data.

[2] = molecular target: T1, ABL(E255K) (Homo sapiens, UniProt P00519, E255K); test: Off-chip Mobility Shift Assay; assay type: biochemical; conditions: read-out: IC50, recombinant ABL (E255K) activity
T1 construct: purchased Carna Biosciences

[3] = molecular target: T2, BTK (C481S) (Homo sapiens, UniProt Q06187, C481S); test: Off-chip Mobility Shift Assay; assay type: biochemical; conditions: read-out: IC50, recombinant BTK (C481S) activity
T2 construct: purchased Carna Biosciences

[4] = Pharmacokinetics in Sprague-Dawley rats, 2-in-1 dosing; assay type: in vivo; conditions: for intravenous plasma clearance compared to dasatinib and compound III / intravenous volume of distribution compared to dasatinib and compound III: Sprague-Dawley rats; for clearance / Vd: single dose (Table 3); for clearance: read-out: CL (plasma clearance) (converted); for Vd: read-out: V (volume of distribution); for AUC(0-inf) / AUC(0-t) / half-life / Cmax / Tmax: single dose, plasma (Table 3); for half-life: read-out: t½ (converted)
Description: Sprague-Dawley rats (approximate weight 275-300 g, N=3) were dosed intravenously at 5 mL/kg and orally at 10 mL/kg with the above dosing solutions. Blood samples were collected into tubes containing EDTA as the anticoagulant at 0, 0.25 (intravenous only), 0.5, 1, 2, 4, 8, 10, and 24 h post-dosing, and plasma samples were prepared by centrifugation. The plasma samples were mixed with 3× volumes of acetonitrile containing 100 nM reserpine as the internal standard, and centrifuged at 4000 RPM for 15 min. The supernatants were injected for LC/MS analysis which were carried out on a AB Sciex 4000 Q Trap LC/MS/MS system coupled with Shimadzu Prominence UFLCXR 20 series (including a CBM-20A controller, two LC-20ADXR solvent delivery units, SIL-20AC HT autosampler, CTO-20A column oven, and a SPD-20A UV detector). The samples were separated on a Phenomenex Columbus column (C18, 4 μm, 50×2 mm) eluted with two solvent systems: 2 mM ammonium acetate in water containing 0.1% formic acid (A) and methanol (B) at a linear gradient starting with 25% B. Electrospray ionization in positive mode was used to acquire LC/MS/MS data.

[5] = Metabolic stability in human liver microsomes; assay type: in vitro ADME; conditions: for metabolic stability as compared to dasatinib: human liver microsomes; for microsomal CLint at 1 μM / half-life at 1 μM: human, liver microsomes, human liver microsomes 0.5 mg/mL, NADPH and UDPGA, 37° C.; for microsomal CLint at 1 μM: read-out: CLint (intrinsic clearance); for half-life at 1 μM: read-out: In vitro t1/2
Description: FIG. 1. Metabolic stability of compounds in human liver microsomal incubations. […] Concentrations at specified times were determined by LC-MS/MS.
The incubation reactions at various time points were quenched by adding 2× volumes of acetonitrile containing 100 nM reserpine. The quenched incubation samples were centrifuged at 4000 RPM for 10 min, and the supernatants injected for LC/MS/MS analysis. LC/MS/MS analysis was carried out on a AB Sciex 4000 Q Trap LC/MS/MS system coupled with Shimadzu Prominence UFLCXR 20 series (including a CBM-20A controller, two LC-20ADXR solvent delivery units, SIL-20AC HT autosampler, CTO-20A column oven, and a SPD-20A UV detector).

[6] = molecular target: T3, ABL (Homo sapiens, UniProt P00519); test: Off-chip Mobility Shift Assay; assay type: biochemical; conditions: read-out: IC50, recombinant ABL activity
T3 construct: purchased Carna Biosciences

[7] = molecular target: T4, BTK (Homo sapiens, UniProt Q06187); test: Off-chip Mobility Shift Assay; assay type: biochemical; conditions: read-out: IC50, recombinant BTK activity
T4 construct: purchased Carna Biosciences

[8] = molecular target: T5, PIK3CA/PIK3R1 (Homo sapiens, UniProt P42336); test: Off-chip Mobility Shift Assay; assay type: biochemical; conditions: read-out: IC50, recombinant PIK3CA/PIK3R1 activity
T5 construct: purchased Carna Biosciences

[9] = test system: RAF1; test: Off-chip Mobility Shift Assay; assay type: biochemical; conditions: 10 nM
[10] = molecular target: T6, ACK (Homo sapiens, UniProt Q07912); test: Off-chip Mobility Shift Assay; assay type: biochemical; conditions: read-out: IC50, recombinant ACK activity
T6 construct: purchased Carna Biosciences

[11] = molecular target: T7, PDGFRα (Homo sapiens, UniProt P16234); test: Off-chip Mobility Shift Assay; assay type: biochemical; conditions: read-out: IC50, recombinant PDGFRα activity
T7 construct: purchased Carna Biosciences

[12] = Sprague-Dawley, rat, plasma, iv, 1 mg/kg, intravenous 1 mg/kg
[13] = Sprague-Dawley, rat, plasma, po, 5 mg/kg, PO 5 mg/kg
[14] = Sprague-Dawley, rat, PO 5 mg/kg

T4 sequence (Q06187 whole entry): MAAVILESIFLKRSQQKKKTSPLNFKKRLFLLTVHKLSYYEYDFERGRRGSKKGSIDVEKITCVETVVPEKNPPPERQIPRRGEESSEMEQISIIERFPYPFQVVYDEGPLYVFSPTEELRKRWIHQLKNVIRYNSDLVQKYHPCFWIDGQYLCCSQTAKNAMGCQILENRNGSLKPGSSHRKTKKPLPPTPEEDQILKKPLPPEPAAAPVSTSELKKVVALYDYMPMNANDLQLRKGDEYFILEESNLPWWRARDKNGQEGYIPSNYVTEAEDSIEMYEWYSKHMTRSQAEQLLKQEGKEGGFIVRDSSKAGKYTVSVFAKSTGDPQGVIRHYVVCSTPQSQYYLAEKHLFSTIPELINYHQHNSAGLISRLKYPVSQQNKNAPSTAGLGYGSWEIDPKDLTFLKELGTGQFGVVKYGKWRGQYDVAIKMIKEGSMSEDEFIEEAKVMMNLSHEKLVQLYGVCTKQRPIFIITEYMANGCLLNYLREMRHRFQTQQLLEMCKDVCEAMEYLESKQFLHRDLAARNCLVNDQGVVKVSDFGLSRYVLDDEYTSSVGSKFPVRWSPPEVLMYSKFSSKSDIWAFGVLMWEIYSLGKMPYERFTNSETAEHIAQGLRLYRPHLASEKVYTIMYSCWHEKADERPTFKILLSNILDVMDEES
T2 sequence (Q06187 whole entry C481S): as the sequence (Q06187 whole entry) above, with C481S counted along it
T1 sequence (P00519 whole entry E255K): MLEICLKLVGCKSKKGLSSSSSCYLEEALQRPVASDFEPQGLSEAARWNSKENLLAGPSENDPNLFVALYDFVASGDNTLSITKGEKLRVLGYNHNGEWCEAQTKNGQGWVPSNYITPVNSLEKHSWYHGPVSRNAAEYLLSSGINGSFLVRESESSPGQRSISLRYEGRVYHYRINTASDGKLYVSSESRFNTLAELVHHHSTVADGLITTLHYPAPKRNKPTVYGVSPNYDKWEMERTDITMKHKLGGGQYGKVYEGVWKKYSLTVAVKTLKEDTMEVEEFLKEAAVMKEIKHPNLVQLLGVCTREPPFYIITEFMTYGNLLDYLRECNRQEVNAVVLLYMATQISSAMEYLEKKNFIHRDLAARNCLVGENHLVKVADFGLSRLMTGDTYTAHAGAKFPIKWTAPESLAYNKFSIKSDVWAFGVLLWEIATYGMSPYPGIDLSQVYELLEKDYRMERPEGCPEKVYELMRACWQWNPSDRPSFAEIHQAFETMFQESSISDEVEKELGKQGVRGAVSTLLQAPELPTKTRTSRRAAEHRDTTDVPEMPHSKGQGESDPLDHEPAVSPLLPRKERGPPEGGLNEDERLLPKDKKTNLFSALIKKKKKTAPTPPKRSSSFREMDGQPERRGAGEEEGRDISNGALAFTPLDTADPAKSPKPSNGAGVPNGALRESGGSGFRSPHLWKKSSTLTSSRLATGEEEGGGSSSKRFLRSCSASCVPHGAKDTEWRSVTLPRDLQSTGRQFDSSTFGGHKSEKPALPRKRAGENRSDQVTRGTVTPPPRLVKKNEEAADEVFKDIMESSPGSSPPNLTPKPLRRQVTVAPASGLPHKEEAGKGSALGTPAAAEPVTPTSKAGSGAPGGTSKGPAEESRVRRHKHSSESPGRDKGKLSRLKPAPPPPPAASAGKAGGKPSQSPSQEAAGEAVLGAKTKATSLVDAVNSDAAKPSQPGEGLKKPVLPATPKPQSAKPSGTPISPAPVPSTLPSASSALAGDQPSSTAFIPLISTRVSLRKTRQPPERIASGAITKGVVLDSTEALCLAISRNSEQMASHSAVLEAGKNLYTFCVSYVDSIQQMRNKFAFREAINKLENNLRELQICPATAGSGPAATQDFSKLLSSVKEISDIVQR
T3 sequence (P00519 whole entry): as the sequence (P00519 whole entry E255K) above, with K255E counted along it
T5 sequence (P42336 whole entry): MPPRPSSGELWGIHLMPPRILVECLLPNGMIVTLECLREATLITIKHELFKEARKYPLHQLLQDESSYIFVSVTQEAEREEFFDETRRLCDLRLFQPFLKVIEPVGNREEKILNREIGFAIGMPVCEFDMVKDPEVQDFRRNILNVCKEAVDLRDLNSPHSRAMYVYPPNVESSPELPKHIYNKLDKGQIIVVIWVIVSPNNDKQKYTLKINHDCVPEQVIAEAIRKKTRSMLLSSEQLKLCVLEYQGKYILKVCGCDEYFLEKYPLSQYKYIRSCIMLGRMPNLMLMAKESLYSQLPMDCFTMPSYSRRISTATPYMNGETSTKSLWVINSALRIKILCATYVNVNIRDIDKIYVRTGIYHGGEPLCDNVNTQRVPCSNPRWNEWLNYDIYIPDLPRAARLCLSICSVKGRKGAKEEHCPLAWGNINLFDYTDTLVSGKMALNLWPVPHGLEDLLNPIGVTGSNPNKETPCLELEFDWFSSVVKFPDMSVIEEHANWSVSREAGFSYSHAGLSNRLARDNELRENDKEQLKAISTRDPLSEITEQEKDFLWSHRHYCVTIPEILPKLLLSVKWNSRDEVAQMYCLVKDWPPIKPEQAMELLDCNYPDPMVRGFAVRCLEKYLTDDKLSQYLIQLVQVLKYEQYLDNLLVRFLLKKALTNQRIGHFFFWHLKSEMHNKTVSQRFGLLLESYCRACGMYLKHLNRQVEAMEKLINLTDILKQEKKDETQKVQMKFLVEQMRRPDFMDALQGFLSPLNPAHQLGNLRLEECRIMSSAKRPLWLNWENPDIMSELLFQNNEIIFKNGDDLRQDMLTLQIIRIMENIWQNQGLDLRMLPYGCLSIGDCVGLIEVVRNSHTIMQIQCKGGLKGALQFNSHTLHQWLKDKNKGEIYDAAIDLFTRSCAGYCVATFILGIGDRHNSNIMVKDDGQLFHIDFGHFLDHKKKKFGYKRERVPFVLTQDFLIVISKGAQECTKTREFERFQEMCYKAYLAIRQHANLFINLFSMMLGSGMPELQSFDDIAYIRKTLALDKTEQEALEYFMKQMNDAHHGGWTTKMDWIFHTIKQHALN
T5 sequence (P27986 whole entry partner): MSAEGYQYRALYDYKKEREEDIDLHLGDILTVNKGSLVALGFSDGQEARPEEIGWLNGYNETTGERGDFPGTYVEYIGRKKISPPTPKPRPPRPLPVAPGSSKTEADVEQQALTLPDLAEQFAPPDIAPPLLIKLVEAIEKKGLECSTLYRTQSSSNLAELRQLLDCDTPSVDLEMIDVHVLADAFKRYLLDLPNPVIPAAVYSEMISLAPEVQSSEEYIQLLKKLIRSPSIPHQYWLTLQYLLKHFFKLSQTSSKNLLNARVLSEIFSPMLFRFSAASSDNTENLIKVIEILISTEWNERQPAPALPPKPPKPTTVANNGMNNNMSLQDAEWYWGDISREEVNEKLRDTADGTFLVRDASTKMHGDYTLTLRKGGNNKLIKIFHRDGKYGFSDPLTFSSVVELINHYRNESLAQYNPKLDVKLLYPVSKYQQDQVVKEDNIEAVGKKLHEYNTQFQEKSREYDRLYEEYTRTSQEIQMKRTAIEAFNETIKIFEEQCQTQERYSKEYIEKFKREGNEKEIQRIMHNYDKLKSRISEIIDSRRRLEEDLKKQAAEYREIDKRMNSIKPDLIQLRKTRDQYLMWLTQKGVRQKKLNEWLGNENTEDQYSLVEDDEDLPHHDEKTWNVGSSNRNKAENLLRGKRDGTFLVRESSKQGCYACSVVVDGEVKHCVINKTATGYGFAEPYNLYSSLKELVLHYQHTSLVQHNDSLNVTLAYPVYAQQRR
T7 sequence (P16234 24-1089): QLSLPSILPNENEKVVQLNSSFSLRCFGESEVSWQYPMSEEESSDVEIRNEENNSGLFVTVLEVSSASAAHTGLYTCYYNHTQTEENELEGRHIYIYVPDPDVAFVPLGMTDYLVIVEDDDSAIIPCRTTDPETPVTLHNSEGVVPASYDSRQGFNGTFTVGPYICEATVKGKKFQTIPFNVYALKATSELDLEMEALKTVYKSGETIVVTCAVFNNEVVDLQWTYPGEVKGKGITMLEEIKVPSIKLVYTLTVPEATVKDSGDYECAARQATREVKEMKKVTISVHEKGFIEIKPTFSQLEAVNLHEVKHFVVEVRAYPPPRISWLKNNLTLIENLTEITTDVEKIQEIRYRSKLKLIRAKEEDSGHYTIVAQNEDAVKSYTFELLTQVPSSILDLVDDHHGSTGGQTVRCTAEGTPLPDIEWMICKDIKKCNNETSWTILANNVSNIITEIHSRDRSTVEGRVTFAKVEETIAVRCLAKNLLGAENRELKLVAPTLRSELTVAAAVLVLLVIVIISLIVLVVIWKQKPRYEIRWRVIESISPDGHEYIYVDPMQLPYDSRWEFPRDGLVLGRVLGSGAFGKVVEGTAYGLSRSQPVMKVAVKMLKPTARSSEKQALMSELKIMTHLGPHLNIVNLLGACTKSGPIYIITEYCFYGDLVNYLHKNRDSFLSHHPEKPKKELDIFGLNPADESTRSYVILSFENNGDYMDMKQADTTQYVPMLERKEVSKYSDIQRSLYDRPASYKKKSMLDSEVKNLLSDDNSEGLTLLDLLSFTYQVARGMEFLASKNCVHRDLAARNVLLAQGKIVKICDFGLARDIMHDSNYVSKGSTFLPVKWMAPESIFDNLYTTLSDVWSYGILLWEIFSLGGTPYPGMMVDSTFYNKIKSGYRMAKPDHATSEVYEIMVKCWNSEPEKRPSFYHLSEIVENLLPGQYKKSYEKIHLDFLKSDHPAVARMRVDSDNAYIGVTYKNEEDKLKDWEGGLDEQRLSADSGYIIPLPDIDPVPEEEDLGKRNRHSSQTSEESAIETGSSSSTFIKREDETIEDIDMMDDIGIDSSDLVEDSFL

ratio of lung tissue concentration to plasma concentration as compared to dasatinib [1]	IC50 [2]	IC50 [3]	intravenous plasma clearance compared to dasatinib and compound III [4]	intravenous volume of distribution compared to dasatinib and compound III [4]	clearance [4, 12]	Vd [4, 12]	AUC(0-inf) [4, 12]	AUC(0-t) [4, 12]	half-life [4, 12]	AUC(0-inf) [4, 13]	AUC(0-t) [4, 13]	half-life [4, 13]	Cmax [4, 14]	Tmax [4, 14]	metabolic stability as compared to dasatinib [5]	microsomal CLint at 1 μM [5]	half-life at 1 μM [5]	IC50 [6]	IC50 [7]	SMILES	other results
significantly lower	< 1 nM	< 1 nM	much lower	significantly lower	6.77 mL/min/kg	1 L/kg	2480 ± 243 ng·h/mL	2480 ± 243 ng·h/mL	96 ± 12 min	1500 ± 273 ng·h/mL	1420 ± 343 ng·h/mL	360 ± 216 min	102 ± 86 ng/mL	30 min	significantly greater stability	< 24 µL/min/mg	> 59 min	< 1 nM	< 1 nM	Cc1nc(Nc2ncc(C(=O)Nc3c(C)cccc3Cl)s2)cc(N2CC[C@@H](O)C2)n1 [Compound XI, N-(2-chloro-6-methylphenyl)-2-[[2-methyl-6-((R)-3-hydroxypyrrolidin-1-yl)pyrimidin-4-yl]amino]thiazole-5-carboxamide]	bioavailability ([4]; Sprague-Dawley, rat, plasma, PO 5 mg/kg versus intravenous 1 mg/kg, AUCinf dose normalized (Table 3), read-out: F (percent oral bioavailability)): 24 ± 33.1%
–	–	–	–	–	–	–	–	–	–	–	–	–	–	–	significantly greater stability	–	–	–	~0.2 nM	[2H]c1cc(C)c(NC(=O)c2cnc(Nc3cc(N4CCCCC4)nc(C)n3)s2)c(Cl)c1 [Compound I, N-(2-chloro-4-deuterio-6-methyl-phenyl)-2-[[2-methyl-6-(1-piperidyl)pyrimidin-4-yl]amino]thiazole-5-carboxamide]	IC50 [8]: ~12 nM; inhibition of RAF1 [9]: < 50%; IC50 [10]: ~0.5 nM; IC50 [11]: ~1.4 nM
significantly lower	< 1 nM	< 1 nM	much lower	significantly lower	6.75 mL/min/kg	1 L/kg	2520 ± 446 ng·h/mL	2520 ± 446 ng·h/mL	96 ± 12 min	1200 ± 349 ng·h/mL	1120 ± 369 ng·h/mL	408 ± 246 min	93 ± 101 ng/mL	30 min	significantly greater stability	< 24 µL/min/mg	> 59 min	< 1 nM	< 1 nM	Cc1nc(Nc2ncc(C(=O)Nc3c(C)cccc3Cl)s2)cc(N2CC[C@H](O)C2)n1 [Compound X, N-(2-chloro-6-methylphenyl)-2-[[2-methyl-6-((S)-3-hydroxypyrrolidin-1-yl)pyrimidin-4-yl]amino]thiazole-5-carboxamide]	–

From patent US20180099961A1, “PROTEIN KINASE INHIBITORS” (Princeton Drug Discovery Inc, priority 2016, published 2018)
